Results from patent US10723741B1, “DNA polymerase IIIC inhibitors and use thereof” (Acurx Pharmaceuticals, LLC, priority 2018, dated 2020).
pKi: −log10 of the molar value.

The molecules below were run against T1, Staphylococcus aureus DNA pol IIIC enzyme (Staphylococcus aureus, UniProt Q5HGG7) (assay: Ki assay for DNA polymerase IIIC (3H-dTTP incorporation, truncated assay)). Conditions: Ki = concentration giving 50% inhibition of control activity; range stated for the listed group; read-out: Ki against Staphylococcus aureus DNA pol IIIC enzyme.
T1 construct: The recombinant protein had full length of original protein and a His tag, a thrombin site and a T7 tag at N-terminus; His tag (N); thrombin site (N); T7 tag (N); made in house; host or cells: E. coli BL21 (DE3), plasmid pET-28a(+)
T1 sequence (Q5HGG7 1-1438): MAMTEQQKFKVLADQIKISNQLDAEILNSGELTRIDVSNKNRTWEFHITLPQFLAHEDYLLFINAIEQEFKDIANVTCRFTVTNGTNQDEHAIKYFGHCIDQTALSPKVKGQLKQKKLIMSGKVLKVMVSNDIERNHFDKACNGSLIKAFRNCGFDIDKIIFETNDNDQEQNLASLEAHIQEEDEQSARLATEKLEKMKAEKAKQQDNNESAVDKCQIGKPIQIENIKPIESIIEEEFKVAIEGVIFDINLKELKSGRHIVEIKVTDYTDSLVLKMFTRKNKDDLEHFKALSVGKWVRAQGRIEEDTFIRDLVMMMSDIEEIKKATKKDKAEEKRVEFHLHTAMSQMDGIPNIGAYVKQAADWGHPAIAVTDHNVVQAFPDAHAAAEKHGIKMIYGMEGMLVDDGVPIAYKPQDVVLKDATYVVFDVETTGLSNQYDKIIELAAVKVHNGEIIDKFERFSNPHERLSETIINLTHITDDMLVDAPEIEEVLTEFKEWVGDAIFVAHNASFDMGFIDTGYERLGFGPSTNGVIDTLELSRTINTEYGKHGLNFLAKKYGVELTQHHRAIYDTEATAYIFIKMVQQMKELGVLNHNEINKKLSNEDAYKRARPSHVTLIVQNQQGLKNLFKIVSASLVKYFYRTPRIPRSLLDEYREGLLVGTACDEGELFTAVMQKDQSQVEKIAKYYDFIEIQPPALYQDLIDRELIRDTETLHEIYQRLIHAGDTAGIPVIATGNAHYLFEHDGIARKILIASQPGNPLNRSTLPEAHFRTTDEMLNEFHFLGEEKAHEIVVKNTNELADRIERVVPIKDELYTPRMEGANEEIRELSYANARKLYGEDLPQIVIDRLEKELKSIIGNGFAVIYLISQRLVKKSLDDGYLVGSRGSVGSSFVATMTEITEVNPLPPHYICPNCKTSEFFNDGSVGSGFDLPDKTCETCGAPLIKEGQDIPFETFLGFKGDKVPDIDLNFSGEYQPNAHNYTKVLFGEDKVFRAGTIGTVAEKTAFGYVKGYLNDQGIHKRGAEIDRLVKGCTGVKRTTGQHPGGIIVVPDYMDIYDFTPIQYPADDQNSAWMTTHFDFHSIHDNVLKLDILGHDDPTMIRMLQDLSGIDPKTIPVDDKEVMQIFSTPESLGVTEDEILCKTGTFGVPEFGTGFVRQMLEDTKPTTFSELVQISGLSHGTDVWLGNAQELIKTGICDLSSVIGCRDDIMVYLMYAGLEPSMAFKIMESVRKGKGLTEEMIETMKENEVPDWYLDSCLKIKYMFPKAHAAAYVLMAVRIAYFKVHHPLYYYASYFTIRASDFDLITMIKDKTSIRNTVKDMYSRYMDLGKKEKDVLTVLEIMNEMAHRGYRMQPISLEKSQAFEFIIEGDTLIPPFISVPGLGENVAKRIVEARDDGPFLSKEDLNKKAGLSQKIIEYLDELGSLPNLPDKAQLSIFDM
Assay type: biochemical
Source text: The ability of a compound to inhibit the activity of DNA pol IIIC enzyme can be tested by using a DNA polymerase assay as described, for example, in Barnes and Brown, Nucl. Acids Res. 1979, 6, 1203-1219; Trantolo et al., J. Med. Chem. 1986, 29, 676-681; Mills et al., J. Bacterial. 1977, 132, 641-649; Low et al., J. Biol. Chem. 1976, 251, 1311-1325. This rapid screening method can use natural or recombinant DNA pol III enzymes in a standard DNA polymerase activity assay. By including a test compound in a side-by-side assay with a control, the effect of the test compound on polymerase activity can be assessed. Compounds with an appropriate level (Ki<[…]) of inhibition of the natural or recombinant bacterial DNA polymerase III are preferred.
The DNA polymerase IIIC coding genes were amplified from genomic DNA. The primers were designed so the 5′-terminal and 3′-terminal contain BamHI and XhoI cutting site respectively. The fragment was directly inserted into expression plasmid pET-28a(+) between BamHI and XhoI sites. The recombinant protein had full length of original protein and a His tag, a thrombin site and a T7 tag at N-terminus. The coding sequence of recombinant protein was confirmed by Sanger sequencing using 8 primers to cover the entire coding regions.
The plasmid was transferred into BL21 (DE3) competent E. coli cells. The positive colonies were inoculated into 1 L LB medium and incubated at 37° C. with 200 rpm rotation to reach OD600=0.6. The inducer IPTG 1 mM was then added to induce the expression for 18 hours at 16° C. The cells were harvested and suspended in lysis buffer (25 mM Tris-HCl pH=7.5, 0.15 M NaCl, 20 mM imidazole, 2 mM β-mecaptoethanol and 1×Roche proteinase inhibitor cocktail). The cells were lyzed by sonication, and the debris was spun down at 50000 g for 1 hour.
The protein was isolated first by passing through the lysate through Ni column. The column was washed with 50 column volume (CV) binding buffer (lysis buffer without proteinase inhibitor) and then 10 CVs of washing buffer (binding buffer with total 40 mM imidazole). The protein was eluted out with elusion buffer (binding buffer with total 300 mM imidazole).
The crude extract was then further purified by size exclusion chromatography using a Superdex 200 increase 10/300 column with 25 mM Tris-HCl pH 7.5, 0.15 M NaCl, 5% Glycerol and 1 mM DTT. The final product was stored as 50-100 μL aliquots at −80° C.
The compounds were dissolved in DMSO to 1 mg/ml (or 10 mg/ml) as compound working solution. On the day of the test, […] of DMSO was added into well A, and 100 μL of DMSO was added into wells B through well H in a round bottom 96 well plate (Corning-3788). An aliquot of 20 μL compound working solution was added into well A and mixed by pipetting. From well A, […] solution was transferred to well B and mixed by pipetting to make a 3 x dilution. The procedure was repeated for well B to well C, and so forth until well G. Well H contained DMSO only. This generated a serial of compound working solutions with concentrations at 100, 33.3, 11.1, 3.7, 1.2, 0.4, 0.14, and 0 μg/ml in pure DMSO. This was deemed the ‘mother plate’.
Using a 96-head pipette station (CyBio), 1 μL compound working solutions were transferred from the mother plate into an identical 96-well plate. This was the ‘testing plate’. The testing plate was kept at room temperature.
The enzyme (DNA polymerase IIIC) samples were taken out from −80° C. freezer. It was thawed and kept on ice. The enzyme was diluted to 0.025-0.06 U/μL with dilution buffer (25 mM Tris-HCl, pH=7.5, 0.15M NaCl, 5% Glycerol, 1 mM DTT). One unit of enzyme is defined as the amount of enzyme could incorporate 250 μmole of dTTP in 30 minutes in a standard assay (with the presence of all nucleotide as substrate, in contrast to “truncated assay” from which dGTP was omitted) in the same system. The diluted enzymes were added into a new 96-well plate (Corning-3788) 20 μL per well. This plate was kept on ice. […]

pKi, 6.00 to 7.28:
Cl.O=c1[nH]c(NCc2ccc(Cl)c(Cl)c2)nc2cnn(CC3CNCCO3)c12 (stereo not drawn) [Compound 149, 5-((3,4-dichlorobenzyl)amino)-1-(morpholin-2-ylmethyl)-1H-pyrazolo[4,3-d]pyrimidin-7(6H)-one hydrochloride]
O=c1[nH]c(NCc2ccc(Cl)c(Cl)c2)nc2cnn(C3CCCC3)c12 [Compound 214, 1-cyclopentyl-5-((3,4-dichlorobenzyl)amino)-1H-pyrazolo[4,3-d]pyrimidin-7(6H)-one]
CN(C)CCOCCn1ncc2nc(NCc3ccc(Cl)c(Cl)c3)[nH]c(=O)c21.Cl [Compound 211, 5-((3,4-dichlorobenzyl)amino)-1-(2-(2-(dimethylamino)ethoxy)ethyl)-1H-pyrazolo[4,3-d]pyrimidin-7(6H)-one hydrochloride]
O=c1[nH]c(NCc2ccc(Cl)c(Cl)c2)nc2cnn(C3CC3)c12 [Compound 213, 1-Cyclopropyl-5-((3,4-dichlorobenzyl)amino)-1H-pyrazolo[4,3-d]pyrimidin-7(6H)-one]
COC(=O)CCCCn1ncc2nc(NCc3ccc(Cl)c(Cl)c3)[nH]c(=O)c21 [Compound 218, methyl 5-[5-[(3,4-dichlorophenyl)methylamino]-7-oxo-6H-pyrazolo[4,3-d]pyrimidin-1-yl]pentanoate]
O=C([C@@H](O)[C@H](O)CO)N1CCC(n2ncc3nc(NCc4ccc(Cl)c(Cl)c4)[nH]c(=O)c32)CC1 [Compound 276, 5-((3,4-dichlorobenzyl)amino)-1-(1-((2S,3R)-2,3,4-trihydroxybutanoyl)piperidin-4-yl)-1H-pyrazolo[4,3-d]pyrimidin-7(6H)-one]
O=C(O)CCC(=O)N1CCC(n2ncc3nc(NCc4ccc(Cl)c(Cl)c4)[nH]c(=O)c32)CC1 [Compound 273, 4-(4-(5-((3,4-dichlorobenzyl)amino)-7-oxo-6,7-dihydro-1H-pyrazolo[4,3-d]pyrimidin-1-yl)piperidin-1-yl)-4-oxobutanoic Acid]
O=c1[nH]c(NCc2ccc(Cl)c(Cl)c2)nc2cnn(-c3ccccc3)c12 [Compound 212, 5-[(3,4-dichlorophenyl)methylamino]-1-phenyl-6H-pyrazolo[4,3-d]pyrimidin-7-one]
Cn1ncc2nc(NCc3ccc(Cl)c(Cl)c3)[nH]c(=O)c21 [Compound 2, 5-((3,4-Dichlorobenzyl)amino)-1-methyl-1H-pyrazolo[4,3-d]pyrimidin-7(6H)-one]
Cl.Cl.O=c1[nH]c(NCc2ccc(Cl)c(Cl)c2)nc2cnn(CCOCCN3CCNCC3)c12 [Compound 167, 5-[(3,4-dichlorophenyl)methylamino]-1-[2-(2-piperazin-1-ylethoxy)ethyl]-6H-pyrazolo[4,3-d]pyrimidin-7-one]
COCCn1ncc2nc(NCc3ccc(Cl)c(Cl)c3)[nH]c(=O)c21 [Compound 126, 5-((3,4-dichlorobenzyl)amino)-1-(2-methoxyethyl)-1H-pyrazolo[4,3-d]pyrimidin-7(6H)-one]
Cc1nn(C)c2c(=O)[nH]c(NCc3ccc(Cl)c(Cl)c3)nc12 [Compound 44, 5-((3,4-dichlorobenzyl)amino)-1,3-dimethyl-1H-pyrazolo[4,3-d]pyrimidin-7(6H)-one]
O=c1[nH]c(NCc2ccc(Cl)c(Cl)c2)nc2cn[nH]c12 [Compound 77, 5-((3,4-dichlorobenzyl)amino)-1H-pyrazolo[4,3-d]pyrimidin-7(6H)-one]
C=CCn1ncc2nc(NCc3ccc(Cl)c(Cl)c3)[nH]c(=O)c21 [Compound 56, 1-allyl-5-((3,4-dichlorobenzyl)amino)-1H-pyrazolo[4,3-d]pyrimidin-7(6H)-one]
Cl.O=c1[nH]c(NCc2ccc(Cl)c(Cl)c2)nc2cnn(C3CCN(C4CCOCC4)CC3)c12 [Compound 242, 5-((3,4-dichlorobenzyl)amino)-1-(1-(tetrahydro-2H-pyran-4-yl)piperidin-4-yl)-1H-pyrazolo[4,3-d]pyrimidin-7(6H)-one hydrochloride]
